Experiments:
Brustkrebs bei Ratten = assay: Prevention of nitrosomethylurea-induced mammary cancer in rats; format: in vivo, Sprague-Dawley Ratten; conditions: nitrosomethylurea 50 mg/kg i.v., 2 mmol/kg diet from day 3, 12 weeks
tracheal cartilage = conditions: toxicity to tracheal cartilage in vitro; from Nature 263, 110-113 (1976); read-out: celluläre Toxizitätsschwelle (Konzentration); cited from earlier work
[1] = system: durch Vitamin A-Hypovitaminose keratinisierten Hamstertrachealgewebe; conditions: hamster tracheal tissue keratinised by vitamin A deficiency; active only at this concentration; cited from earlier work

SMILES | Zahl der Tumoren (Brustkrebs bei Ratten; all tumours) | Zahl der Tumoren davon größer als 1,0 g (Brustkrebs bei Ratten; tumours > 1,0 g) | Zahl der Tumoren größer als 0,100 g (Brustkrebs bei Ratten; tumours > 0,100 g) | MCC (tracheal cartilage) | Konzentration, in der Aktivität vorliegt [1]
CC1=C(/C=C/C(C)=C/C=C/C(C)=C/CNC(=O)c2ccccc2)C(C)(C)CCC1 [Benzoyl-retinylamin, N-Benzoyl-all-E-Retinylamin] | 10 | 2 | 4 | – | –
CC(=O)NCC=C(C)C=CC=C(C)C=CC1=C(C)CCCC1(C)C [N-Acetyl-retinylamin] | – | – | – | > 10 µM | 9.10^-9 molar

From patent publication EP0010209A1, “N-Benzoyl-retinyl amines, process for their preparation, pharmaceutical compositions comprising them and the use of these compounds for the therapy and prophylaxis of precanceroses and carcinomas of the skin” (BASF Aktiengesellschaft, priority 1978, dated 1980)
